Test results as given in PubChem BioAssay AID1259408 (Genetic Toxicology Data Bank (GENE-TOX), 2018).
Activity calls are given as the source filed them. How the calls were made is not given here.

Test system: GENE-TOX genotoxicity assays, various organisms and cells
Experiment: GENE-TOX mutagenicity studies
Details: for call: Assay Type: In vivo carcinogenicity studies
Text: GENE-TOX provides genetic toxicology (mutagenicity) test data from expert peer review of open scientific literature for more than 3,000 chemicals from the United States Environmental Protection Agency (EPA). GENE-TOX was established to select assay systems for evaluation, review data in the scientific literature, and recommend proper testing protocols and evaluation procedures for these systems.
GENE-TOX covers the years 1991 - 1998. It is no longer updated.
This is an archive assay for GENE-TOX mutagenicity studies.

[1] = Species/Cell Type: Human, Assay Type: Sister-chromatid exchange (SCE) in vitro, Assay Code: SC1+D, Dose Response: With dose response, Evaluation Type: Evaluation B (Post-1980)
[2] = Species/Cell Type: Salmonella typhimurium (one or more of the five standard strains: TA98, TA100, TA1535, TA1537, and TA1538), Assay Type: Histidine reverse gene mutation, Ames assay, Assay Code: SAL+, Evaluation Type: Evaluation A (Pre-1980)
[3] = Species/Cell Type: Salmonella typhimurium, Assay Type: Forward and reverse gene mutation, host-mediated assay, Assay Code: HMA-, Evaluation Type: Evaluation A (Pre-1980)
[4] = Species/Cell Type: Salmonella typhimurium (one or more of the five standard strains: TA98, TA100, TA1535, TA1537, and TA1538), Assay Type: Histidine reverse gene mutation, Ames assay, Assay Code: SAL-, Evaluation Type: Evaluation A (Pre-1980)
[5] = Species/Cell Type: Nonhuman, Assay Code: CCG+, Evaluation Type: Evaluation A (Pre-1980)

C=Cc1ccccc1
mutagenic call (Species/Cell Type: Chinese hamster lung (V79) cells, Assay Type: Forward gene mutation at the HPRT or ouabain locus, Assay Code: V79-, Evaluation Type: Evaluation A (Pre-1980)): inactive; negative | mutagenic call (Species/Cell Type: Drosophila melanogaster, Assay Type: Sex-linked recessive lethal gene mutation, Assay Code: SRL+, Evaluation Type: Evaluation A (Pre-1980)): active; positive | mutagenic call (Species/Cell Type: Human diploid fibroblasts, Assay Type: Unscheduled DNA synthesis (UDS) in vitro, DNA effects, Assay Code: UDH-*, Activation: With metabolic activation, Evaluation Type: Evaluation A (Pre-1980)): inactive; negative | mutagenic call (Species/Cell Type: Human lymphocytes or leukocytes, Assay Type: Chromosome aberrations in vivo, Assay Code: CY8+, Evaluation Type: Evaluation A (Pre-1980)): active; positive | mutagenic call (Species/Cell Type: Human lymphocytes, Assay Type: Micronucleus test in vitro, chromosome aberrations, Assay Code: MN7+, Evaluation Type: Evaluation A (Pre-1980)): active; positive | mutagenic call (Species/Cell Type: Human lymphocytes, Assay Type: Sister-chromatid exchange (SCE) in vitro, Assay Code: SCL+D, Dose Response: With dose response, Evaluation Type: Evaluation B (Post-1980)): active; positive | mutagenic call (Species/Cell Type: Human lymphocytes, Assay Type: Sister-chromatid exchange (SCE) in vivo, Assay Code: SCY+, Evaluation Type: Evaluation B (Post-1980)): active; positive | mutagenic call [1]: active; positive | mutagenic call (Species/Cell Type: Mammalian polychromatic erythrocytes, Assay Type: Micronucleus test, chromosome aberrations, Assay Code: MNT+, Evaluation Type: Evaluation B (Post-1980)): active; positive | call (Species/Cell Type: Nonhuman, Assay Code: CCG+L, Evaluation Type: Evaluation A (Pre-1980)): active; positive | mutagenic call (Species/Cell Type: Nonhuman, Assay Type: Sister-chromatid exchange (SCE) in vivo, Assay Code: SC3+D, Dose Response: With dose response, Evaluation Type: Evaluation B (Post-1980)): active; positive | mutagenic call (Species/Cell Type: Plant, Assay Type: Micronucleus test, chromosome aberrations, Assay Code: MNP+, Evaluation Type: Evaluation A (Pre-1980)): active; positive | mutagenic call (Species/Cell Type: Saccharomyces cerevisiae, Assay Type: Forward and reverse gene mutation, mitotic recombination and gene conversion, host-mediated assay, Assay Code: HME+, Evaluation Type: Evaluation A (Pre-1980)): active; positive | mutagenic call (Species/Cell Type: Saccharomyces cerevisiae, Assay Type: Mitotic recombination or gene conversion, Assay Code: YEC+*, Activation: With metabolic activation, Evaluation Type: Evaluation A (Pre-1980)): active; positive | mutagenic call (Species/Cell Type: Salmonella typhimurium (one or more of the five standard strains: TA98, TA100, TA1535, TA1537, and TA1538), Assay Type: Histidine reverse gene mutation, Ames assay, Assay Code: SAL+*, Activation: With metabolic activation, Evaluation Type: Evaluation A (Pre-1980)): active; positive | mutagenic call (Species/Cell Type: Schizosaccharomyces pombe, Assay Type: Forward gene mutation, Assay Code: YEYT, Evaluation Type: Evaluation A (Pre-1980)): no conclusion | mutagenic call (Species/Cell Type: Syrian hamster embryo (SA7/SHE) cells, Assay Type: Cell transformation, viral enhanced, Assay Code: CT7-, Evaluation Type: Evaluation A (Pre-1980)): inactive; negative

NC1CCSC1=O (stereo not drawn)
mutagenic call (Species/Cell Type: Human lymphocytes, Assay Type: Sister-chromatid exchange (SCE) in vitro, Assay Code: SCLT, Evaluation Type: Evaluation B (Post-1980)): no conclusion | mutagenic call (Species/Cell Type: Human, Assay Type: Sister-chromatid exchange (SCE) in vitro, Assay Code: SC1T, Evaluation Type: Evaluation B (Post-1980)): no conclusion

Cc1cc(C(=C2C=CC(=Nc3ccc(S(=O)(=O)O)cc3)C=C2)c2ccc(Nc3ccc(S(=O)(=O)O)cc3)cc2)cc(S(=O)(=O)O)c1N
mutagenic call (Species/Cell Type: Bacillus subtilis (H17 vs M45), Assay Type: Rec-assay, spot test, DNA effects (bacterial DNA repair), Assay Code: REWT, Evaluation Type: Evaluation A (Pre-1980)): no conclusion

Clc1c(N2CC2)nc(N2CC2)nc1N1CC1
mutagenic call (Species/Cell Type: Aspergillus nidulans, Assay Type: Reverse gene mutation, Assay Code: ASR+, Evaluation Type: Evaluation A (Pre-1980)): active; positive

CCC(=O)Oc1ccc(/C(CC)=C(\CC)c2ccc(OC(=O)CC)cc2)cc1
mutagenic call (Species/Cell Type: Human lymphocytes, Assay Type: Sister-chromatid exchange (SCE) in vitro, Assay Code: SCL+, Evaluation Type: Evaluation B (Post-1980)): active; positive | mutagenic call (Species/Cell Type: Human, Assay Type: Sister-chromatid exchange (SCE) in vitro, Assay Code: SC1+, Evaluation Type: Evaluation B (Post-1980)): active; positive | mutagenic call (Species/Cell Type: Nonhuman, Assay Type: Sister-chromatid exchange (SCE) in vivo, Assay Code: SC3T, Evaluation Type: Evaluation B (Post-1980)): no conclusion | mutagenic call (Species/Cell Type: Saccharomyces cerevisiae, Assay Type: Aneuploidy, chromosome aberrations, Assay Code: YEN+, Evaluation Type: Evaluation A (Pre-1980)): active; positive

CSC\C=C(C)/C=C\C=C(C)/C=C\C1=C(C)CCCC1(C)C
mutagenic call [1]: active; positive

CCNC(=O)N(CC)N=O
mutagenic call (Species/Cell Type: Zea mays (corn), Assay Type: Gene mutation, Assay Code: ZEM+D, Dose Response: With dose response, Evaluation Type: Evaluation A (Pre-1980)): active; positive

C#C[C@@]1(O)CC[C@@H]2[C@H]3CCC4=CC(=O)CC[C@H]4[C@@H]3CC[C@]21CC
mutagenic call (Species/Cell Type: Rabbit, Sex: Male, Assay Type: Sperm morphology, Assay Code: SPR-, Evaluation Type: Evaluation A (Pre-1980)): inactive; negative

O=[N+]([O-])c1ccc2c(ccc[n+]2[O-])c1
mutagenic call (Species/Cell Type: Human diploid fibroblasts, Assay Type: Unscheduled DNA synthesis (UDS) in vitro, DNA effects, Assay Code: UDH-, Evaluation Type: Evaluation A (Pre-1980)): inactive; negative

CC(=O)Nc1nc(/C=C/c2ccc([N+](=O)[O-])o2)cs1
mutagenic call [2]: active; positive

C1CCNC1
mutagenic call [3]: inactive; negative

N#CCCN1CC1
mutagenic call (Species/Cell Type: Schizosaccharomyces pombe, Assay Type: Reverse gene mutation, Assay Code: YEZ+, Evaluation Type: Evaluation A (Pre-1980)): active; positive

CCN(CC)c1ccc(N=Nc2ccccc2)cc1
mutagenic call (Species/Cell Type: Saccharomyces cerevisiae, Assay Type: Mitotic recombination or gene conversion, Assay Code: YEH-, Evaluation Type: Evaluation A (Pre-1980)): inactive; negative | mutagenic call [4]: inactive; negative

O=C1CCC(N2C(=O)c3ccccc3C2=O)C(=O)N1 (stereo not drawn)
mutagenic call (Species/Cell Type: Allium cepa, Assay Type: Chromosome aberrations, Assay Code: ALC+, Evaluation Type: Evaluation A (Pre-1980)): active; positive | mutagenic call (Species/Cell Type: Drosophila melanogaster, Assay Type: Aneuploidy, partial sex chromosome loss, chromosome aberrations, Assay Code: DAP-M, Evaluation Type: Evaluation A (Pre-1980)): inactive; negative | mutagenic call (Species/Cell Type: Drosophila melanogaster, Assay Type: Aneuploidy, sex chromosome gain, chromosome aberrations, Assay Code: DAG-M, Evaluation Type: Evaluation A (Pre-1980)): inactive; negative | mutagenic call (Species/Cell Type: Drosophila melanogaster, Assay Type: Aneuploidy, whole sex chromosome loss, chromosome aberrations, Assay Code: DAC-M, Evaluation Type: Evaluation A (Pre-1980)): inactive; negative | mutagenic call (Species/Cell Type: Mouse, Sex: Male, Assay Type: Sperm morphology, Assay Code: SPI-, Evaluation Type: Evaluation A (Pre-1980)): inactive; negative | mutagenic call [3]: inactive; negative | mutagenic call (Species/Cell Type: Vicia faba, Assay Type: Chromosome aberrations, Assay Code: VIC+, Evaluation Type: Evaluation A (Pre-1980)): active; positive

Oc1ccc2cccnc2c1
mutagenic call [4]: inactive; negative

CNC(=O)Oc1cc(C)cc(C)c1
mutagenic call (Species/Cell Type: Bacillus subtilis (H17 vs M45T), Assay Type: Rec-assay, spot test, DNA effects (bacterial DNA repair), Assay Code: REX-, Evaluation Type: Evaluation A (Pre-1980)): inactive; negative | mutagenic call (Species/Cell Type: Escherichia coli WP2, Assay Type: Tryptophan reverse gene mutation, Assay Code: WP2-, Evaluation Type: Evaluation A (Pre-1980)): inactive; negative

CCCCCCCCCCCCCC(=O)ON(C(C)=O)c1ccc2c(c1)Cc1ccccc1-2
mutagenic call (Species/Cell Type: Human diploid fibroblasts, Assay Type: Unscheduled DNA synthesis (UDS) in vitro, DNA effects, Assay Code: UDH+, Evaluation Type: Evaluation A (Pre-1980)): active; positive | mutagenic call (Species/Cell Type: Salmonella typhimurium (one or more of the five standard strains: TA98, TA100, TA1535, TA1537, and TA1538), Assay Type: Histidine reverse gene mutation, Ames assay, Assay Code: SALT, Evaluation Type: Evaluation A (Pre-1980)): no conclusion

c1ccc2c(c1)cc1ccc3c4ccccc4cc4ccc2c1c43
call [5]: active; positive

O=S(O)S(=O)(=O)O
mutagenic call (Species/Cell Type: Mammalian polychromatic erythrocytes, Assay Type: Micronucleus test, chromosome aberrations, Assay Code: MNTT, Evaluation Type: Evaluation B (Post-1980)): no conclusion | mutagenic call (Species/Cell Type: Nonhuman, Assay Type: Sister-chromatid exchange (SCE) in vitro, Assay Code: SC2T, Evaluation Type: Evaluation A (Pre-1980)): no conclusion | mutagenic call (Species/Cell Type: Nonhuman, Assay Type: Sister-chromatid exchange (SCE) in vivo, Assay Code: SC3-, Evaluation Type: Evaluation B (Post-1980)): inactive; negative

Cc1ccc(Nc2ccc3c4c(cccc24)C(=O)c2ccccc2-3)cc1
mutagenic call [2]: active; positive

CC(=O)Nc1nc(-c2ccc([N+](=O)[O-])o2)cs1
mutagenic call (Species/Cell Type: Bacillus subtilis (H17 vs M45), Assay Type: Rec-assay, spot test, DNA effects (bacterial DNA repair), Assay Code: REW+, Evaluation Type: Evaluation A (Pre-1980)): active; positive | mutagenic call (Species/Cell Type: Escherichia coli WP2, Assay Type: Tryptophan reverse gene mutation, Assay Code: WP2+, Evaluation Type: Evaluation A (Pre-1980)): active; positive | mutagenic call (Species/Cell Type: Escherichia coli WP2 UVRA, Assay Type: Tryptophan reverse gene mutation, Assay Code: WPU-, Evaluation Type: Evaluation A (Pre-1980)): inactive; negative | call [5]: active; positive | mutagenic call (Species/Cell Type: Nonhuman, Assay Type: Sister-chromatid exchange (SCE) in vitro, Assay Code: SC2+D, Dose Response: With dose response, Evaluation Type: Evaluation B (Post-1980)): active; positive | mutagenic call [2]: active; positive

CCCN(C)N=O
mutagenic call (Species/Cell Type: Chinese hamster lung (V79) cells, Assay Type: Forward gene mutation at the HPRT or ouabain locus, Assay Code: V79+, Evaluation Type: Evaluation A (Pre-1980)): active; positive
